Data taken from US6867235B2, “Helianthrone derivatives as anti-cancer agents” (Yeda Research and Development Co. Ltd., priority 2000, dated 2005).

Legend:
[1] = test system: rat aorta rings, endothelial cell microvessels; test: Rat aorta ring microvessel formation in fibrin gel; type: cell-based; settings: 0.1-10 μg/ml (0.2-20 μM)
Text: Rat aorta is carved into rings which are embedded in fibrin gels and cultured in MCDB 131 medium. Endothelial cells that detach from the aorta rings generate branching microvessels according to a method previously described (Nicosia R. F. and Ottinetti A. Growth of microvessels in serum-free matrix culture of rat aorta. Laboratory Investigation 63: 115, 1990).

tumor neovascularization = test: Tumor neovascularization in tumor-bearing mice; settings: mouse, in vivo
Text: These hitherto unknown attributes were detected while studying the effects of hypericin and of helianthrone derivatives on breast adenocarcinoma tumors induced in mice with the DA-3^HI cell line and on murine anaplastic squamous carcinoma tumors induced with the SQ-2 cell line. Both are highly metastatic tumors and if surgically resected after having reached a diameter larger than 5 mm, the mice will go on to develop metastases in the lungs and liver. The metastases cause death of the animals within approximately two months following surgery.
By preventing development of new blood vessels to supply a growing metastasis, the rapidly growing metastatic focus is deprived of nutrients and oxygen for its rapidly multiplying cells and the lesion degenerates.

[2] = test system: heparanase-induced angiogenesis; test: Heparanase-induced angiogenesis in the anterior chamber of the rat eye; type: in vivo, rats; settings: four i.p. injections of 750 μg, 5 days after heparanase
Protocol: Four rats (250 g each) were given three intraperitoneal injections of hypericin (750 μg per dose in 5 ml water containing 3.5% ethanol) at four day intervals. The following day the animals were anesthetized with xylazine-ketamine and angiogenesis (formation of new blood vessels) was induced by inoculating 2 μl heparanase (30 μg/ml) into the frontal compartment of the eye in the cornea of one of the two eyes in each rat. A fourth intraperitoneal injections of 750 μg hypericin was applied the next day. Two positive control animals received only 2 μl heparanase (30 μg/ml) into the frontal compartment of the eye. Angiogenesis was then allowed to develop for 5 days at which time animals were anesthetized with xylazine-ketamine and examined and photographed under a binocular microscope for development of blood vessels in the anterior chamber of the eye.

[3] = test system: U251 human glioblastoma cells; type: cell-based; settings: glioblastoma cells in culture, complete darkness
Protocol: Human HL-60 leukemic cells were grown in RPMI-1640 supplemented with 15% fetal calf serum, […] and 100 units/ml penicillin-streptomycin. Human erythroleukemia K-562 cells (derived from a chronic myeloid leukemia pateient) were grown in the same medium supplemented with 10% fetal calf serum. These cells and the human U251 glioblastoma, U87MG glioblastoma and LAN5 neuroblastoma cells used in the experiments are available from the ATCC. All cell lines were cultured in a humidified 5% CO2/95% air atmosphere at 37° C.
Cell viability was monitored by the MTT assay which measures reduction of 3-(4,5-dimethylthiazol-2-yl)-2,5-diphenyl tetrazolium bromide to formasan by mitochondria of viable cells as described in Mossman, T., J. Immunogen., 21, 235-248 (1983). The cells are incubated with MTT for four hours at 37° C. and analyzed in an ELISA reader at 560 nm. The optical density of formasan generated by untreated cell cultures (O.D. control) is defined as one MTT unit. The number of MTT units in culture samples undergoing treatments is calculated as the ratio (O.D.sample−O.D.blank)/O.D.control).
Three human malignant cell lines were evaluated to sensitivity to dimethyl TMH in vitro. […] The medium was aspirated, the adherent monolayer was washed with phosphate-buffered saline, and cell viability was monitored by the MTI assay. […]

[4] = test system: SQ2 squamous cell carcinoma tumors; test: Survival after resection of SQ2 squamous cell carcinoma tumors with hypericin; type: in vivo, BALB/c mice; settings: for mice alive beyond 240 days following tumor cell inoculation: resection
Protocol: In another set of experiments squamous cell carcinoma tumors were generated in BALB/c mice by inoculating 5×10^5 SQ2 cells per mouse. When the tumors reached a diameter of 1.0-1.2 cm in diameter they were removed by surgery (resected). One group of 5 mice also received three i.p injections of hypericin of 100 μg/mouse prior to surgery and two regimens of 50 μg/mouse post surgery at intervals of 5 days between each dosing. Another group of 8 mice received six hypericin i.p. injections of 100 μg/mouse prior to surgery and five regimens of 50 μg/mouse post surgery at intervals 5 days apart. One control group of 17 mice underwent surgery only without treatments with hypericin and another control group remained untreated (22 mice). Animal survival was then followed.

[5] = test system: DA-3HI metastatic lesions; test: Morphology of metastatic lesions after resection of DA-3HI tumors; type: in vivo, BALB/c mice; settings: 5 doses of 200 μg/mouse at 5 day intervals, two months after surgery
Protocol: In an effort to understand how hypericin prevents the growth of metastases the experiment was repeated and the morphology of the metastatic lesions then followed. Primary DA-3^HI tumors were induced in BALB/c mice. Surgery was conducted on the tumors when diameters reached 8-10 mm. These mice (17 animals) were divided into two groups, one treated with 5 doses of hypericin 200 μg/mouse at 5 day intervals as previously described (9 animals) and another group served as untreated control (8 mice). The animals were grown for two more months. The mice were then sacrificed and the internal organs examined for metastatic lesions. […] This was evident only when hypericin injections were initiated very early prior to the resection of the primary tumor. These observations indicate that hypericin inhibits angiogenesis (growth of new vasculature). […] Since angiogenesis is primarily mediated by vascular endothelium growth factor (VEGF), hypericin may interfere with either the formation or secretion of VEGF from tumor cells or with its targeting of growth inducing receptors on vascular endothelial cells. […] Interference with the signal transduction pathway that culminates in the production of VEGF might be the mechanism for hypericin or helianthrone derivative-mediated inhibition of the VEGF effect that results in inhibition of metastatic lesion growth.

[6] = test system: DA-3HI induced breast adenocarcinoma tumors; test: Survival after resection of DA-3HI breast adenocarcinoma tumors with hypericin; type: in vivo, BALB/c mice; settings: for survival rate: 5 days apart
Protocol: The primary tumor size at which metastases occur in DA-3^HI-derived breast adenocarcinoma tumors was initially calibrated in BALB/c mice inoculated with 5×10^5 DA-3^HI tumor cells intradermally. […] If the resection was performed on tumors with larger diameters, the mice died of metastases. A diameter of approximately 5 mm appears to be the cutoff at which metastases begin to spread.
DA-3^HI tumors were induced in 12-week old female BALB/c mice as described above. When the tumors reached diameters of 8-10 mm the mice were divided into four groups. One group of 19 mice was left untreated and in the three other groups the tumors were surgically removed. One of the resected groups received two intraperitoneal (i.p.) injections with 200 μg hypericin (HY) each 5 days apart beginning two days prior to surgery (16 mice). Another resected group received five i.p. injections with 200 μg hypericin each, 5 days apart beginning two days prior to surgery (17 mice). One resected group was not treated with hypericin (16 mice). The mice were then followed for survival. […] However, administration of 2 i.p. injections of hypericin increased the survival rate to 35% and administration of 5 hypericin doses increased the survival rate to 60%.

| Structure (SMILES) | formation of organized microvessels [1] | neovascularization of tumors (tumor neovascularization) | blood vessels in the anterior chamber of the eye [2] | effect on the cultures at doses at which dimethyl-TMH kills cells [3] | inhibition of the primary tumor ([4]; SQ-2 anaplastic squamous carcinoma tumors) | mice alive beyond 240 days following tumor cell inoculation ([4]; six i.p. injections 100 μg/mouse prior to surgery, five of 50 μg/mouse post surgery) [%] | mice alive beyond 240 days following tumor cell inoculation ([4]; three i.p. injections 100 μg/mouse prior to surgery, two of 50 μg/mouse post surgery) [%] | protection rates due to hypericin administration ([4]; versus surgery only) | appearance of metastatic lesions in internal organs [5] | inhibition of the primary tumor ([6]; DA-3HI breast adenocarcinoma tumors) | survival rate ([6]; day 89, resection plus 2 i.p. injections of 200 μg) [%] | survival rate ([6]; day 89, resection plus 5 i.p. injections of 200 μg) [%] |
| --- | --- | --- | --- | --- | --- | --- | --- | --- | --- | --- | --- | --- |
| Cc1ccc2c(=O)c3c(O)cc(O)c4c5c(O)cc(O)c6c(=O)c7ccc(C)cc7c(c65)c(c2c1)c34 [dimethyl tetrahydroxyhelianthrone, 10,13-dimethyl-1,3,4,6-tetrahydroxyhelianthrone] | inhibition of formation of the organized microvessels | prevented neovascularization | – | – | – | – | – | – | – | – | – | – |
| Cc1cc(O)c2c(=O)c3c(O)cc(O)c4c5c(O)cc(O)c6c(=O)c7c(O)cc(C)c8c1c2c(c34)c(c78)c65 [hypericin] | inhibition of formation of the organized microvessels | prevented neovascularization | absence of blood vessels | no effect | not inhibited | 40 | 60 | 20-40% | much smaller, somewhat more necrotic and devoid of such vasculature | not inhibited | 35 | 60 |
